What was measured:
Assay in all cases: relative viability (nuclei count vs DMSO), 5 days (fraction); higher = more cells survive
Tosedostat + Dasatinib = compound: CC(C)C[C@@H](C(=O)N[C@H](C(=O)OC1CCCC1)c1ccccc1)[C@H](O)C(=O)NO [Tosedostat] + Cc1nc(Nc2ncc(C(=O)Nc3c(C)cccc3Cl)s2)cc(N2CCN(CCO)CC2)n1 [Dasatinib] (partner 0.075 µM)
Procedure, shortened: (§1)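 Lung cancer cell lines in 1536-well plates got either a single drug or a fixed anchor-drug dose together with five library-drug doses (not always all listed) in √10 steps, by pin tool, on the day after seeding. Nuclei were counted after 5 days, and relative viability is the treated-to-vehicle ratio of nuclei counts. Values are medians of duplicate plates.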

[1] = compound: CC1=NN=C(O1)C2=NN=C(C=C2)N3CCC(CC3)OC4=C(C=CC(=C4)F)Cl + CC(=O)Nc1cccc(-n2c(=O)n(C3CC3)c(=O)c3c(Nc4ccc(I)cc4F)n(C)c(=O)c(C)c32)c1 [Trametinib] (partner 0.02 µM)
Procedure, shortened: as §1

[2] = compound: CC1=NN=C(O1)C2=NN=C(C=C2)N3CCC(CC3)OC4=C(C=CC(=C4)F)Cl + COc1cc2c(Oc3ccc(NC(=O)C4(C(=O)Nc5ccc(F)cc5)CC4)cc3F)ccnc2cc1OCCCN1CCOCC1 [Foretinib] (partner 0.25 µM)
Procedure, shortened: as §1

[3] = compound: CC1=NN=C(O1)C2=NN=C(C=C2)N3CCC(CC3)OC4=C(C=CC(=C4)F)Cl + CS(=O)(=O)N1CCN(Cc2cc3nc(-c4cccc5[nH]ncc45)nc(N4CCOCC4)c3s2)CC1 [Pictilisib] (partner 1 µM)
Procedure, shortened: as §1

Cell Line	relative viability (Tosedostat + Dasatinib; first compound 0.02 µM)	relative viability (Tosedostat + Dasatinib; first compound 0.06325 µM)	relative viability (Tosedostat + Dasatinib; first compound 0.2 µM)	relative viability (Tosedostat + Dasatinib; first compound 0.6325 µM)	relative viability (Tosedostat + Dasatinib; first compound 2 µM)	relative viability ([1]; first compound 0.253 µM)	relative viability ([1]; first compound 0.8 µM)	relative viability ([1]; first compound 2.53 µM)	relative viability ([1]; first compound 8 µM)	relative viability ([2]; first compound 0.253 µM)	relative viability ([2]; first compound 0.8 µM)	relative viability ([2]; first compound 2.53 µM)	relative viability ([2]; first compound 8 µM)	relative viability ([3]; first compound 0.253 µM)	relative viability ([3]; first compound 0.8 µM)	relative viability ([3]; first compound 2.53 µM)	relative viability ([3]; first compound 8 µM)
LC-2-ad	0.865	0.51	0.675	0.602	0.337	0.369	0.35	0.349	0.328	0.66	0.634	0.623	0.507	0.423	0.416	0.4	0.386
NCI-H1975	0.369	0.358	0.35	0.268	0.34	0.171	0.307	0.373	0.385		0.929	0.834	0.757		0.332	0.411	0.402
ChaGo-K-1	0.662	0.567	0.587	0.535	0.394	0.649	0.555	0.613	0.57	0.773	0.709	0.785	0.739	0.633	0.681	0.508	0.548
COR-L 105	0.348	0.37	0.365	0.323	0.298	0.488	0.424	0.414	0.429	0.994	1.06	1.12	1.08	0.426	0.405	0.334	0.378
NCI-H2085	0.205	0.234	0.256	0.276	0.307	0.326	0.514	0.423	0.363	0.808		0.744	0.698	0.387	0.471	0.452	0.39
Calu-6										0.602	0.597	0.517	0.573	0.735	0.747	0.702	0.696
NCI-H2087	1.17	0.936	0.908	0.688	0.869	0.167	0.196	0.244	0.175	0.593	0.641	0.626	0.489	0.769	0.604	0.795	0.66
NCI-H2342	0.306	0.367	0.321	0.275	0.295	0.581	0.554	0.55	0.486	0.671	0.627	0.684	0.545				
EBC-1										0.0917	0.0957	0.103	0.0946	0.33	0.485	0.473	0.408
NCI-H522	0.901	0.982	0.858	0.843	0.945	0.785	0.852	0.783	0.924								
IA-LM										0.164	0.158	0.171	0.167	0.173	0.195	0.203	0.187
NCI-H1299										1.09	1.08	1.05	1.02	0.698	0.611	0.71	0.713
